Results on four molecules are retold here after ChEMBL document CHEMBL3994622, “Design and synthesis of new RAF kinase-inhibiting antiproliferative quinoline derivatives. Part 2: Diarylurea derivatives” (Eur J Med Chem, 2017).

The test system of one test is MDA-MB-468. Put plainly: Growth inhibition of human MDA-MB-468 cells assessed as cell growth at 0.003 uM incubated for 48 hrs by sulforhodamine B assay relative to control. It is filed as functional. The following applies: MDA-MB-468, 48 h, read-out: Activity. (The SRB assay estimates cell density from bound dye.)
In test [1] the target is Mitogen-activated protein kinase 14 (Homo sapiens) (UniProt Q16539). Put plainly: Inhibition of human MAPK p38allpha at 10 uM using myelin basic protein as substrate in presence of [33P]ATP by Hotspot assay relative to control.
Test [2] deals with T1, Serine/threonine-protein kinase B-raf (Homo sapiens, UniProt P15056). Put plainly: Inhibition of human BRAF at 10 uM using MEK1 as substrate in presence of [33P]ATP by Hotspot assay relative to control.
The target of test [3] is T1, Serine/threonine-protein kinase B-raf. Nature of the test: Inhibition of human BRAF using MEK1 as substrate in presence of [33P]ATP by Hotspot assay.
The target in test [4] is Receptor tyrosine-protein kinase erbB-2 (Homo sapiens) (UniProt P04626). Put plainly: Inhibition of human HER2 at 10 uM using poly[Glu:Tyr] (4:1) as substrate in presence of [33P]ATP by Hotspot assay relative to control.
The test system of test [5] is LOX IMVI. Nature of the test: Growth inhibition of human LOXIMVI cells assessed as cell growth at 30 uM incubated for 48 hrs by sulforhodamine B assay relative to control. The following applies: read-out: Activity. The format is functional.
The next test has as its system OVCAR-5. Nature of the test: Growth inhibition of human OVCAR5 cells assessed as cell growth at 0.5 uM incubated for 48 hrs by sulforhodamine B assay relative to control. The format is functional. The following applies: OVCAR-5, 48 h, read-out: Activity.
The next test concerns HCT-116. Put plainly: Growth inhibition of human HCT116 cells assessed as cell growth at 5 uM incubated for 48 hrs by sulforhodamine B assay relative to control. It is filed as functional. Particulars: HCT-116, 48 h, read-out: Activity.
Another test has as its system Malme-3M. Nature of the test: Growth inhibition of human MALME-3M cells assessed as cell growth at 0.05 uM incubated for 48 hrs by sulforhodamine B assay relative to control. The format is functional. The following applies: read-out: Activity.
A further test concerns K562. Nature of the test: Growth inhibition of human K562 cells assessed as cell growth at 0.005 uM incubated for 48 hrs by sulforhodamine B assay relative to control. The following applies: K562, 48 h, read-out: Activity. The format is functional.
The subject of test [6] is PC-3. Put plainly: Growth inhibition of human PC3 cells assessed as cell growth at 0.05 uM incubated for 48 hrs by sulforhodamine B assay relative to control. The following applies: PC-3, 48 h, read-out: Activity. The format is functional.
Test [7] has as its system A549. Put plainly: Growth inhibition of human A549/ATCC cells assessed as cell growth at 5 uM incubated for 48 hrs by sulforhodamine B assay relative to control. It is filed as functional. The following applies: A549, 48 h, read-out: Activity.
For test [8], the system named is IGROV-1. Put plainly: Growth inhibition of human IGROV1 cells assessed as cell growth at 50 uM incubated for 48 hrs by sulforhodamine B assay relative to control. Particulars: IGROV-1, 48 h, read-out: Activity. The format is functional.
Test [9] has as its system U-251. Put plainly: Growth inhibition of human U251 cells assessed as cell growth at 50 uM incubated for 48 hrs by sulforhodamine B assay relative to control. It is filed as functional. Particulars: U-251, 48 h, read-out: Activity.
In test [10] the test system is U-251. Nature of the test: Growth inhibition of human U251 cells assessed as cell growth at 0.5 uM incubated for 48 hrs by sulforhodamine B assay relative to control. It is filed as functional. The following applies: U-251, 48 h, read-out: Activity.
Test [11] deals with OVCAR-8. Nature of the test: Growth inhibition of human OVCAR8 cells assessed as cell growth at 5 uM incubated for 48 hrs by sulforhodamine B assay relative to control. The following applies: OVCAR-8, 48 h, read-out: Activity. It is filed as functional.
Test [12] concerns LOX IMVI. Nature of the test: Growth inhibition of human LOXIMVI cells assessed as cell growth at 0.005 uM incubated for 48 hrs by sulforhodamine B assay relative to control. The format is functional. The following applies: read-out: Activity.
Test [13] deals with T47D. Nature of the test: Growth inhibition of human T47D cells assessed as cell growth at 0.05 uM incubated for 48 hrs by sulforhodamine B assay relative to control. The format is functional. Particulars: read-out: Activity.
The test system of test [14] is OVCAR-8. Put plainly: Growth inhibition of human OVCAR8 cells assessed as cell growth at 0.005 uM incubated for 48 hrs by sulforhodamine B assay relative to control. The following applies: OVCAR-8, 48 h, read-out: Activity. It is filed as functional.
The next test relates to ACHN. Nature of the test: Growth inhibition of human ACHN cells assessed as cell growth at 5 uM incubated for 48 hrs by sulforhodamine B assay relative to control. It is filed as functional. The following applies: read-out: Activity.
In test [15] the test system is A549. Put plainly: Growth inhibition of human A549/ATCC cells assessed as cell growth at 0.05 uM incubated for 48 hrs by sulforhodamine B assay relative to control. The format is functional. Particulars: A549, 48 h, read-out: Activity.
The test system of test [16] is Hs-578T. Nature of the test: Growth inhibition of human Hs 578T cells assessed as cell growth at 0.005 uM incubated for 48 hrs by sulforhodamine B assay relative to control. It is filed as functional. Particulars: read-out: Activity.
Another test relates to HT-29. Put plainly: Growth inhibition of human HT-29 cells assessed as cell growth at 0.05 uM incubated for 48 hrs by sulforhodamine B assay relative to control. The format is functional. Particulars: HT-29, 48 h, read-out: Activity.
Test [17] deals with IGROV-1. Put plainly: Growth inhibition of human IGROV1 cells assessed as cell growth at 5 uM incubated for 48 hrs by sulforhodamine B assay relative to control. The following applies: IGROV-1, 48 h, read-out: Activity. The format is functional.
In a further test the test system is HCT-15. Nature of the test: Growth inhibition of human HCT15 cells assessed as cell growth at 0.05 uM incubated for 48 hrs by sulforhodamine B assay relative to control. It is filed as functional. The following applies: HCT-15, 48 h, read-out: Activity.
Test [18] concerns MDA-MB-435. Put plainly: Growth inhibition of human MDA-MB-435 cells assessed as cell growth at 0.05 uM incubated for 48 hrs by sulforhodamine B assay relative to control. It is filed as functional. The following applies: MDA-MB-435, 48 h, read-out: Activity.
The next test deals with HOP-92. Put plainly: Growth inhibition of human HOP92 cells assessed as cell growth at 0.05 uM incubated for 48 hrs by sulforhodamine B assay relative to control. The following applies: HOP-92, 48 h, read-out: Activity. It is filed as functional.
For a further test, the system named is RPMI-8226. Nature of the test: Growth inhibition of human RPMI8226 cells assessed as cell growth at 0.05 uM incubated for 48 hrs by sulforhodamine B assay relative to control. The format is functional. Particulars: RPMI-8226, 48 h, read-out: Activity.
For test [19], the system named is Hs-578T. Put plainly: Growth inhibition of human Hs 578T cells assessed as cell growth at 50 uM incubated for 48 hrs by sulforhodamine B assay relative to control. It is filed as functional. The following applies: read-out: Activity.
A further test relates to OVCAR-3. Nature of the test: Growth inhibition of human OVCAR3 cells assessed as cell growth at 0.05 uM incubated for 48 hrs by sulforhodamine B assay relative to control. The format is functional. Particulars: OVCAR-3, 48 h, read-out: Activity.
Test [20] concerns MDA-MB-435. Nature of the test: Growth inhibition of human MDA-MB-435 cells assessed as cell growth at 5 uM incubated for 48 hrs by sulforhodamine B assay relative to control. Particulars: MDA-MB-435, 48 h, read-out: Activity. The format is functional.
The subject of test [21] is PC-3. Nature of the test: Growth inhibition of human PC3 cells assessed as cell growth at 50 uM incubated for 48 hrs by sulforhodamine B assay relative to control. The following applies: PC-3, 48 h, read-out: Activity. It is filed as functional.
The next test deals with TK-10. Put plainly: Growth inhibition of human TK10 cells assessed as cell growth at 0.005 uM incubated for 48 hrs by sulforhodamine B assay relative to control. The format is functional. The following applies: TK-10, 48 h, read-out: Activity.
For a further test, the system named is SW-620. Nature of the test: Growth inhibition of human SW620 cells assessed as cell growth at 0.5 uM incubated for 48 hrs by sulforhodamine B assay relative to control. It is filed as functional. The following applies: SW-620, 48 h, read-out: Activity.
Test [22] deals with T47D. Nature of the test: Growth inhibition of human T47D cells assessed as cell growth at 10 uM incubated for 48 hrs by sulforhodamine B assay relative to control. It is filed as functional. The following applies: read-out: Activity.

T1 sequence (P15056 whole entry): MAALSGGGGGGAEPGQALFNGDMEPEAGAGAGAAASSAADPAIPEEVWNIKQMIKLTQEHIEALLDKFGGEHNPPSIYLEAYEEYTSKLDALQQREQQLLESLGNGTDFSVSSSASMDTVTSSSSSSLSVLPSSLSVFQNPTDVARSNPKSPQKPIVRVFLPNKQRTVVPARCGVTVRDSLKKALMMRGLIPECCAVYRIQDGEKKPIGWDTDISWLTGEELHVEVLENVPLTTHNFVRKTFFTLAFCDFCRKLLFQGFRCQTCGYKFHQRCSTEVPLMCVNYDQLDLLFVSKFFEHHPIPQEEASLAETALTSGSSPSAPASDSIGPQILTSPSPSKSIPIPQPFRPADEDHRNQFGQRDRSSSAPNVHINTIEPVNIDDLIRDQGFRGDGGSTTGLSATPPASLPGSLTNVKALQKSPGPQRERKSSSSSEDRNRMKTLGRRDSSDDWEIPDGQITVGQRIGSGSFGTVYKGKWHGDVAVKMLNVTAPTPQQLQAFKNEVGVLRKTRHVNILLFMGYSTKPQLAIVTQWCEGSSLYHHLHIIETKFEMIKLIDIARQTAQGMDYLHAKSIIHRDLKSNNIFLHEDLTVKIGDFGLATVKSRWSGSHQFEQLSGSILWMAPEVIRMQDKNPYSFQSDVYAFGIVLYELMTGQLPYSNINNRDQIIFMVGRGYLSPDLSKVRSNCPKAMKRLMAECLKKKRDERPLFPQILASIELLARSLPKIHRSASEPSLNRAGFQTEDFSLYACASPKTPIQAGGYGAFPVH
Receptor tyrosine-protein kinase erbB-2 (Homo sapiens), sequence (P04626 whole entry): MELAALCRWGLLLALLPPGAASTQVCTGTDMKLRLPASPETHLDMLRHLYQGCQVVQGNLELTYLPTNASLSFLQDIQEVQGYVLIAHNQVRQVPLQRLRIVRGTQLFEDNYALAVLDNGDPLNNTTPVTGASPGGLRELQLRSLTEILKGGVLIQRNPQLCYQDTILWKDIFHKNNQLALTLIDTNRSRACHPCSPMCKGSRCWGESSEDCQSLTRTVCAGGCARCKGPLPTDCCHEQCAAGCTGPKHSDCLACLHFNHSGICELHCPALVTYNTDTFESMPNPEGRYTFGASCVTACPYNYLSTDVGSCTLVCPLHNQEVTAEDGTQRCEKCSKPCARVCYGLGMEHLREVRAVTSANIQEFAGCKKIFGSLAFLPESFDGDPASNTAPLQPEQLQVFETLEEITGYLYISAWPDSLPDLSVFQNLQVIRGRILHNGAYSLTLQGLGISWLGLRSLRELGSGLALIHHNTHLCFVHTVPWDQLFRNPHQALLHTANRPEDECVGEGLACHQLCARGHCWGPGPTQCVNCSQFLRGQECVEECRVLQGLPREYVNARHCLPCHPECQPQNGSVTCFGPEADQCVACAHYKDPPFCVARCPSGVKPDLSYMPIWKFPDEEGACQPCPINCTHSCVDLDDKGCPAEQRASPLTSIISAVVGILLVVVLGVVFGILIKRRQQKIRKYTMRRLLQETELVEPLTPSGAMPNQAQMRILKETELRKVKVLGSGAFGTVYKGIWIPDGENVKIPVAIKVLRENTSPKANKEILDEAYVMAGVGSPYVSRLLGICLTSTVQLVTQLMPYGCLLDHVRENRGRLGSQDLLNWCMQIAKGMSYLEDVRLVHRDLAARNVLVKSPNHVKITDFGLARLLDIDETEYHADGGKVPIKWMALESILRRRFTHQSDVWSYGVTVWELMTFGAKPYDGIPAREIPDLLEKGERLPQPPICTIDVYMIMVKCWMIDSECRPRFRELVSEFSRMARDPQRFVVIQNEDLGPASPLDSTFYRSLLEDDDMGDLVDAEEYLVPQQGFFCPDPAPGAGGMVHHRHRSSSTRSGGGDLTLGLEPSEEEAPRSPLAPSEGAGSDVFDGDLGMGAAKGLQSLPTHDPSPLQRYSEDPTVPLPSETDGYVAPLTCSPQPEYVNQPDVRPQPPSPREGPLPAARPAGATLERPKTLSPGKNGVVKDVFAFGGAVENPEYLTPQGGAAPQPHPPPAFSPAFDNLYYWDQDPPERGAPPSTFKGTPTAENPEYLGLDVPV
Mitogen-activated protein kinase 14 (Homo sapiens), sequence (Q16539 whole entry): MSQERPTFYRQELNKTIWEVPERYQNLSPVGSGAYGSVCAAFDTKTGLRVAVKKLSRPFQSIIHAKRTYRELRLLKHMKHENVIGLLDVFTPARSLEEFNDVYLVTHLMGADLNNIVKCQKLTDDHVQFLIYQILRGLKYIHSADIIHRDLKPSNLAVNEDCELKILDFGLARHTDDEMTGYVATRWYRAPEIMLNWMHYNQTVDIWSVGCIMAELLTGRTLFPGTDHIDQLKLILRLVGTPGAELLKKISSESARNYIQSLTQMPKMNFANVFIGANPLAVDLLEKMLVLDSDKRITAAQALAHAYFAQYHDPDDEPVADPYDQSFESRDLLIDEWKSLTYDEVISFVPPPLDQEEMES

For `Cc1nc2cc(O)c(O)cc2cc1Oc1ccc(NC(=O)Nc2ccc(Cl)c(Cl)c2)cc1`, the growth at 0.003 µM in the test with MDA-MB-468 was found to be 100%.

A word on the inhibition: it is the drop in the measured response relative to a control, in per cent. As usually defined, the IC50 is the concentration that gives 50% inhibition. Turning to `COc1cc2cc(Oc3ccc(NC(=O)Nc4ccc(Cl)c(C(F)(F)F)c4)cc3)c(C)nc2cc1OC`, the results for the inhibition in test [1], in [2] and in [4] were 56.4%, 74.2% and -7.21%, respectively. Moreover, the IC50 in [3] came to 1330 nM. Moreover, the growth at 30 µM with LOX IMVI [5] is -100%.

Consider `COc1cc2cc(Oc3ccc(NC(=O)Nc4cccc(C(F)(F)F)c4)cc3)c(C)nc2cc1OC`, for which the figures for the growth at 0.5 µM in the test with OVCAR-5, in the test with U-251 [10] and with SW-620 were 119%, 94% and 108%, respectively. The growth at 5 µM with HCT-116 was 6%; in the test with A549 [7], 9%; with OVCAR-8 [11], 10%; with ACHN it was 8%; in the test on IGROV-1 [17] it was 31%; with MDA-MB-435 [20], 13%. The growth at 0.05 µM stood at 96% with Malme-3M; 99% in the test with PC-3 [6]; 101% in the test with T47D [13]; 96% in the test on A549 [15]; 100% with HT-29; 94% with HCT-15. Also, the growth at 0.05 µM with MDA-MB-435 [18] was 96%; in the test on HOP-92, 96%; with RPMI-8226 it was 96%; in the test on OVCAR-3 it was 101%. For the same molecule, the growth at 0.005 µM came to 102% in the test on K562; 98% in the test on LOX IMVI [12]; 101% in the test with OVCAR-8 [14]; 90% in the test with Hs-578T [16]; 92% in the test with TK-10. The growth at 50 µM in the test on IGROV-1 [8] is -14%; in the test on U-251 [9], -99%; with Hs-578T [19], -41%; in the test on PC-3 [21], -65%.

Consider `COc1cc2cc(Oc3ccc(NC(=O)Nc4cc(C(F)(F)F)cc(C(F)(F)F)c4)cc3)c(C)nc2cc1OC`, for which the growth at 10 µM with T47D [22] was -21%.
